Measurements taken from patent publication US5391800A, “Method for inhibition of cell motility by sphingosine-1-phosphate, its derivatives and mimetics and method of synthesizing sphingosine-1-phosphate and its derivatives” (The Biomembrane Institute, priority 1993, dated 1995).
Entries after “also recorded” stand apart in the source; their conditions may differ.

Key:
[1] = system: PKC of B16/F1 melanoma cells; experiment: PKC activity of B16/F1 melanoma cells (32P incorporation into histone IIIS); format: biochemical, mouse; conditions: for Inhibitory effect on PKC activity: B16/F1 cells; for % PKC activity: control = 100%, mean ± S.E., n = 3; for PKC inhibition: concentration not given
Protocol: Effects of SPN derivatives on protein kinase C activity and cell growth of B16/F1 cells was also investigated. […] Toxicity of these compounds to B16/F1 cells and human neutrophils was also examined using a trypan blue exclusion assay after 1 hour incubation with the compounds.
*Mean ± S.E. (n = 3). For controls (defined as 100%), PKC activity was
33225 cpm per tube per 20 min, as measured by ^32 P incorporation int

[2] = system: B16/F1 melanoma cells; experiment: Chemotactic motility of B16/F1 cells through MATRI-GEL-coated transwell filter; format: cell-based, mouse; conditions: for % motility: percent relative to control, n = 3 or 4, concentration not given
Protocol: The assays for determining chemotactic cell motility and chemoinvasion can be performed using transwell plates with a polycarbonate membrane filter (pore size 8 μm) (Costar Scientific, Cambridge, Mass.). Aliguots, e.g., 50 μl, of an aqueous solution of MATRI-GEL (Collaborative Research, Bedford, Mass.) containing SPN-1-P or other inhibitor (e.g., 20 μg/ml for chemotactic motility assay or 200 μg/ml for chemoinvasion assay), is added to each well and dried overnight. The filter is then fitted onto the lower chamber plate. The lower chamber can contain conditioned medium (CM) (i.e., medium used for splenic stromal cell culture, and containing motility factor secreted by these cells), e.g., 0.6 ml, with or without SPN-1-P or other inhibitor. To the upper chamber is added, e.g., about 100 μl, of cell suspension (5×10^4 cells/ml for invasion assay, 5×10^5 cells/ml for motility assay), which is then incubated in 5% CO2 at 37° C. for 70-72 hours (invasion assay) or 20 hours (motility assay). After incubation, cells remaining in the upper chamber are wiped off with a cotton swab, and cells which had migrated to the lower chamber side of the filter are fixed in methanol for 30 seconds and stained with 0.05% toluidine blue. The filter is removed, the stain is solubilized in 10% acetic acid (e.g., 0.1 ml for invasion assay, 0.5 ml for motility assay), and color intensity (optical density) is quantitated by ELISA reading at 630 nm. Using SPN-1-P, a linear relationship was observed between cell number and toluidine blue optical density (FIG. 7).
Assays were performed using transwell plates with polycarbonate membrane filters (pore size 8 μm) (Costar Scientific, Cambridge, Mass.). 50 μl aliguots of an aqueous solution of MATRI-GEL (Collaborative Research, Bedford, Mass.) containing 20 μg/ml (for chemotactic motility assay) or 200 μg/ml (for chemoinvasion assay) were added to each well and dried overnight. The filter was fitted onto the lower chamber plate. The lower chamber contained 0.6 ml conditioned medium (CM) (i.e., medium used for splenic stromal cell culture, and containing motility factor secreted by these cells) with or without the suspected inhibitor. To the upper chamber was added 100 μl of cell suspension (5×10^4 cells/ml for invasion assay, 5×10^5 cells/ml for motility assay), which was then incubated in 5% CO2 at 37° C. for 70-72 hours (invasion assay) or 20 hours (motility assay). After incubation, cells remaining in the upper chamber were wiped off with a cotton swab, and cells which had migrated to the lower chamber side of the filter were fixed in methanol for 30 seconds and stained with 0.05% toluidine blue. The filter was removed, the stain was solubilized in 10% acetic acid (0.1 ml for invasion assay, 0.5 ml for motility assay), and color intensity (optical density) was quantitated by ELISA reading at 630 nm. A linear relationship was observed between cell number and toluidine blue optical density (FIG. 7.).
In experiments with different quantities of MATRI-GEL, cell migration through transwell filter was maximal with 1 μg/well was applied, and when CM was used (FIG. 8). Therefore, chemotactic cell motility, as affected by various SPN derivatives, was assayed under these conditions.
*Mean ± S.E. of percent relative to control (n = 4). Actual O.D. value
and 0.147 (HT1080). 6 × 10^4 cells were placed on a transwell
filter coated with 1.0 μg MATRIGEL in the upper chamber, and cultured
for 18 hours in the presence of CM and SPN1-P in the lower chamber.

[3] = system: B16/F1 melanoma cells; experiment: Growth of B16/F1 melanoma cells (cell count after 48 hr); format: cell-based, mouse; conditions: for Growth-inhibitory effect / activity at 10 µM: 10 μM; for Growth-inhibitory effect: B16/F1 cells
Protocol: *Mean ± S.E. (n = 3). For controls (defined as 100%), cell number was
10^5 cells were seeded and
cultured on a 35 mm plastic dish in Dulbecco's modified Eagle's medium
containing 2% fetal bovine serum in the presence or absence of SPN
derivatives. 48 hr later, cells were counted.

[4] = system: B16/F10 melanoma cells; experiment: Phagokinetic activity of B16/F10 melanoma cells on gold sol-coated plates; format: cell-based, mouse; conditions: for Cleared area: mean ± S.D., n > 50; for Area cleared by B16/F10 tumor cells: SPN-1-P at 1.0 or 0.1 μM
Protocol: Phagokinetic activity is measured by the ability of cells to ingest foreign particles while moving. […] A uniform coating of gold particles is prepared on glass coverslips precoated with bovine serum albumin, and coverslips are rinsed repeatedly to remove non-adhering or loosely-adhering gold particles. Freshly-prepared neutrophils or tumor cells detached from culture are placed in a Petri dish containing the gold sol-coated plate, and incubated for about 2 hours (for human neutrophils) or about 18 hours (for tumor cells). The coverslips are fixed for 1 hour in a 4% formaldehyde solution in phosphate-buffered saline (PBS) and mounted on microscope slides. The phagokinetic tracks are observed on a television connected to a light microscope (Nikon, Tokyo, Japan). Tracks on the television are transferred to translucent sheets, which are then photocopied. Phagokinetic activity is quantitated by cutting and weighing the swept area in the copy.
A uniform coating of gold particles was prepared on glass coverslips precoated with bovine serum albumin, and the coverslips were rinsed repeatedly to remove non-adhering or loosely-adhering gold particles. Freshly-prepared neutrophils or tumor cells detached from culture were placed in a Petri dish containing the gold sol-coated plate, and incubated for 2 hours (for human neutrophils) or 18 hours (for tumor cells). The coverslips were fixed for 1 hour in 4% formaldehyde solution in phosphate-buffered saline (PBS) and mounted on microscope slides. The phagokinetic tracks were observed on a television connected to a light microscope (Nikon, Tokyo, Japan). Tracks on the television were transferred to translucent sheets, which were then photocopied. Phagokinetic activity was quantitated by cutting and weighing the swept area in the copy.

[5] = Mus musculus, B16-F1, 48 hr, control = 100%, mean ± S.E., n = 3
[6] = Mus musculus, B16-F10, 1.0 μM, 18 hours, read-out: % of control (CM+) value

**Q.** What does the source list for `CCCCCCCCCCCCC/C=C/[C@@H](O)[C@@H](N)CO` [SPN, sphingosine]?
**A.** Inhibitory effect on PKC activity ([1]; 75 μM): strong inhibitory effect; % PKC activity ([1]; 75 μM): 34 ± 7%; inhibition at 10 µM ([2]; Mus musculus, B16-F1, 20 h, read-out: Motility blocked): 100%; Growth-inhibitory effect [3]: moderate growth-inhibitory effect; activity at 1 µM [3, 5]: 101 ± 1%; activity at 5 µM [3, 5]: 87 ± 10%; activity at 10 µM [3, 5]: 78 ± 4%; Cleared area less control (CM-) value ([4]; 1.0 μM, 18 hours): 0.4 × 10^3 μm^2; Cleared area ([4]; 1.0 μM, 18 hours): 2.5 ± 1.0 × 10^3 μm^2; activity at 1 µM [4, 6]: 8%; Area cleared by B16/F10 tumor cells [4]: reduced the area cleared by tumor cells

**Q.** What does the source list for `CCCCCCCCCCCCC/C=C/[C@@H](O)[C@@H](N)COP(=O)(O)O` [SPN-1-P, sphingosine-1-phosphate]?
**A.** % PKC activity ([1]; 10 μM): 121 ± 10%; Inhibitory effect on PKC activity ([1]; 75 μM): no inhibitory effect; % PKC activity ([1]; 75 μM): 108 ± 32%; PKC inhibition [1]: does not inhibit PKC; Inhibition of B16/F1 motility, comparison ([2]; FIG. 9, 20 hour): inhibited most strongly; also recorded: same dose-dependent inhibitory effect on cell motility; inhibition at 0.1 µM ([2]; Mus musculus, B16-F1, 10^-7 M, 20 hour, CM, lower chamber, read-out: Motility blocked): 100%; inhibition at 0.01 µM ([2]; Mus musculus, B16-F1, 10^-8 M, 20 hour, CM, lower chamber, read-out: Motility blocked): 90%; activity at 0.001 µM ([2]; Mus musculus, B16-F1, F1, 0.001 μM, 18 hours, relative to control, mean ± S.E., n = 4): 82 ± 44%; activity at 0.01 µM ([2]; Mus musculus, B16-F1, F1, 0.01 μM, 18 hours, relative to control, mean ± S.E., n = 4): 12 ± 7%; activity at 0.1 µM ([2]; Mus musculus, B16-F1, F1, 0.1 μM, 18 hours, relative to control, mean ± S.E., n = 4): 6 ± 2%; activity at 1 µM ([2]; Mus musculus, B16-F1, F1, 1.0 μM, 18 hours, relative to control, mean ± S.E., n = 4): 8 ± 2%; Susceptibility of B16/F1 cells (chemotactic motility) ([2]; Table V, in words): high; Inhibition of cell motility compared with other sphingolipids ([2]; comparison with other sphingolipids): much stronger than that for SPN, N,N-dimethylsphingosine (DMS), or N,N,N-trimethylsphingosine (TMS); also recorded: unexpectedly superior inhibition; % motility ([2]; mean ± S.E.): 5 ± 1%; Growth-inhibitory effect [3]: no growth-inhibitory effect; activity at 0.01 µM ([3]; Mus musculus, B16-F1, 0.01 μM, 48 hr, control = 100%, mean ± S.E., n = 3): 103 ± 10%; activity at 0.1 µM ([3]; Mus musculus, B16-F1, 0.1 μM, 48 hr, control = 100%, mean ± S.E., n = 3): 97 ± 5%; activity at 1 µM [3, 5]: 105 ± 10%; activity at 5 µM [3, 5]: 96 ± 2%; activity at 10 µM [3, 5]: 87 ± 10%; Cleared area less control (CM-) value ([4]; 0.0001 μM, 18 hours): 3.9 × 10^3 μm^2; Cleared area ([4]; 0.0001 μM, 18 hours): 6.0 ± 2.7 × 10^3 μm^2; Cleared area less control (CM-) value ([4]; 0.01 μM, 18 hours): 2.0 × 10^3 μm^2; Cleared area ([4]; 0.01 μM, 18 hours): 4.1 ± 1.4 × 10^3 μm^2; Cleared area less control (CM-) value ([4]; 0.1 μM, 18 hours): 1.3 × 10^3 μm^2; Cleared area ([4]; 0.1 μM, 18 hours): 3.4 ± 1.3 × 10^3 μm^2; Cleared area less control (CM-) value ([4]; 1.0 μM, 18 hours): 0.3 × 10^3 μm^2; Cleared area ([4]; 1.0 μM, 18 hours): 2.4 ± 1.1 × 10^3 μm^2; activity at 0.0001 µM ([4]; Mus musculus, B16-F10, 0.0001 μM, 18 hours, read-out: % of control (CM+) value): 81%; activity at 0.01 µM ([4]; Mus musculus, B16-F10, 0.01 μM, 18 hours, read-out: % of control (CM+) value): 42%; activity at 0.1 µM ([4]; Mus musculus, B16-F10, 0.1 μM, 18 hours, read-out: % of control (CM+) value): 27%; activity at 1 µM [4, 6]: 6%; Area cleared by B16/F10 tumor cells [4]: greatly reduced

**Q.** How did the “Inhibitory effect on PKC activity” value ([1]; 75 μM) turn out when `CCCCCCCCCCCCC/C=C/[C@@H](O)[C@H](CO)[N+](C)(C)C` [TMS, N,N,N-trimethylsphingosine] was run?
**A.** Its value is “strong inhibitory effect”.

**Q.** And the “% PKC activity” value ([1]; 75 μM)?
**A.** The value was 16 ± 3%.

**Q.** And the “PKC inhibition” value [1]?
**A.** Its value is “in striking contrast to DMS and TMS, SPN-1-P does not inhibit PKC”.

**Q.** And the “Inhibition of motility” value ([2]; 10^-5 M, 20 hour)?
**A.** The value was “only weak inhibition of motility”.

**Q.** And the “% motility” value ([2]; mean ± S.E.)?
**A.** The value was 100 ± 19%.

**Q.** What about the “Growth-inhibitory effect” value [3] of the same compound?
**A.** Its value is “strong”.

**Q.** What about the activity at 1 µM [3, 5] of the same compound?
**A.** Its activity at 1 µM is 88 ± 7%.

**Q.** And the activity at 5 µM [3, 5]?
**A.** Its activity at 5 µM is 77 ± 8%.

**Q.** And the activity at 10 µM [3, 5]?
**A.** Its activity at 10 µM is 11 ± 1%.

**Q.** What about the “Cleared area less control (CM-) value” ([4]; 1.0 μM, 18 hours) of the same compound?
**A.** Its value is 3.5 × 10^3 μm^2.

**Q.** What about the Cleared area ([4]; 1.0 μM, 18 hours) of the same compound?
**A.** The Cleared area was 5.6 ± 2.7 × 10^3 μm^2.

**Q.** And the activity at 1 µM [4, 6]?
**A.** The activity at 1 µM was 73%.

**Q.** What about the “Area cleared by B16/F10 tumor cells” value [4] of the same compound?
**A.** Its value is “reduced the area cleared by tumor cells”.
